Reference: patent US10781183B2, “Small molecule inducers of reactive oxygen species and inhibitors of mitochondrial activity” (The Regents of the University of Michigan, priority 2016, dated 2020)
Read-outs that look alike come from different tables or passages of the source.

Legend:
[1] = test system: Panc-1 cells; test: MTT cytotoxicity assay, Panc-1; assay type: cell-based; settings: three independent experiments
Procedure: MiaPaCa-2, Panc-1 and BxPC-3 pancreatic cancer cell lines were obtained from the ATCC. Normal pancreatic cells HPDE and HPNE were kindly provided (Translational Oncology Program, University of […], Ann Arbor, Mich.). Gemcitabine resistant cell line MiaPaCa-2-GR (gemcitabine resistant) was kindly provided (Department of Pathology, Wayne State University, Detroit, Mich.). All cell lines were cultured as monolayer and maintained in RPMI1640 supplemented with 10% fetal bovine serum (FBS) in a humidified atmosphere with 5% CO2 at 37° C. MiaPaCa-2-GR culture was supplemented with 200 nM gemcitabine.
Cytotoxicity of compounds was evaluated with 3-(4,5-dimethylthiazol-2-yl)-2,5-diphenyltetrazolium bromide (MTT) assay. Cells were placed in 96-well plate at 3000-8000 cells/well. After overnight attachment, compounds were added to the wells at sequential dilutions (30 nM-10 μM for most cell lines). After 72 h treatment, MTT was added into the media to a final concentration of 300 μg/mL. Cells were incubated for 3 h at 37° C., and the insoluble formazan converted by viable cells were dissolved in 150 μL of DMSO. Absorbance at 570 nm was read by microplate reader (Molecular devices, Sunnyvale, Calif.), and inhibition of cell proliferation was calculated using the following formula: Inhibition of cell proliferation (%)=(1−ODtreatment/ODcontrol)×100%

[2] = test system: MiaPaCa-2 cells; test: ROS detection assay (H2DCFDA probe); assay type: cell-based
Procedure: To quantify ROS induction by redox modulators, a high throughput ROS assay in 384-well plates using H2DCFDA as the ROS detection probe was developed (FIG. 1A).
Cells were detached by 0.05% trypsin-EDTA, neutralized, centrifuged (1200 rpm, 5 min) and resuspended in cell culture media. Suspension were then treated with 20 μM cell permeable H2DCFDA for 30 min at 37° C. Cells were then centrifuged (1200 rpm, 5 min) and washed with cell culture media to remove excess probe. After washing, cells were placed in black-wall 384-well plate at 20,000 cells/well, incubated for 30 min and treated by compounds at designated conditions. Fluorescent signal were then read at 493 nm/523 nm on BioTek H1 plate reader for ROS detection.

[3] = Systemic toxicity in MiaPaCa-2 engrafted mice
Procedure: MiaPaCa-2 cells (2.0×10^6) in a 100 μL suspension of RPMI1640 was injected subcutaneously into dorsal flank of 6-week NOD/SCID mice. Tumor size was monitored twice a week through caliper measurement using the following equation: V=d^2×D/2, where d represents width and D represents length of the tumor. In study 1, mice were randomly grouped (n=5 per group) when average tumor size reached 65 mm^3. Daily treatment was given at five days on two days off cycles. QD325 was given at 5 mg/kg in 100 μL vehicle (5% DMSO, 60% Propylene glycol, 35% Saline) by intraperitoneal injection. […] Unpaired t test was performed for data analysis and p<0.05 was considered significant. […] Procedures for study 2 with gemcitabine treatment are detailed in supplemental information.
On necropsy, tumors, hearts, kidneys, livers, lungs, spleens and pancreases were collected, fixed in 10% neutral buffered formalin, embedded in paraffin, and sectioned. Sections ([…]) were stained with hematoxylin and eosin to facilitate histologic examination. For Ki67 expression level, immunohistochemistry staining was performed on sections with Ki67 antibody. Embedding, sectioning and staining of samples were performed by ULAM pathology core for animal research at the University of Michigan. Representative images were taken on Olympus IX83 microscope with 20× magnification.

For `O=C1C(Nc2ccc(-c3ccccc3)cc2)=CC(=O)c2ncncc21` [QD325, 6-([1,1′-biphenyl]-4-ylamino)quinazoline-5,8-dione], which IC50 ([1]; Homo sapiens, PANC-1, Table 2, Mean ± SD, read-out: IC 50 Panc-1) is on record?
The IC50 was 400 ± 100 nM.

What about the IC50 ([1]; Table 1, 72 h, Mean ± SD) of the same molecule?
Its IC50 is less than 1000 nM.

What about the “ROS induction compared with lead compound QD232” value ([2]; MiaPaCa-2, 24 h treatment, 10 μM (FIG. 1C)) of the same molecule?
The value was “significantly higher ROS induction than the lead compound QD232”.

And the “accumulation of ROS” value ([2]; MiaPaCa-2, 10, 3.3 or 1.1 μM (FIG. 3A))?
The value was “time- and dose-dependent accumulation of ROS”.

And the “ROS accumulation at 10 and 3.3 μM” value ([2]; MiaPaCa-2, 10 and 3.3 μM)?
Its value is “rapid and high ROS accumulation”.

And the “ROS induction after NAC pretreatment” value ([2]; MiaPaCa-2, NAC 5 mM for 30 min pretreatment (FIG. 3B))?
Its value is “inhibited”.

What about the “body weight of engrafted mice” value ([3]; QD325 5 mg/kg (FIG. 12B)) of the same molecule?
Its value is “not affected”.

What about the “body weight of engrafted mice” value ([3]; QD325 5-20 mg/kg (FIG. 13B)) of the same molecule?
The value was “not affected”.

And the “systemic toxicity at higher doses” value ([3]; doses as high as 20 mg/kg)?
The value was “no systemic toxicity was observed”.

What about the “histopathology of H&E stained organ sections” value ([3]; liver, kidney, heart, lung, spleen and pancreas, QD325 5 mg/kg (FIG. 12C)) of the same molecule?
The value was “did not reveal major histopathological changes”.
